Experimental data taken from patent US8003660B2, “Modulators of muscarinic receptors” (Vertex Pharmaceuticals Incorporated, priority 2006, dated 2011).
pEC50: −log10 of the molar value.

Legend:
Type in all cases: cell-based
[1] = target: T1, M2 muscarinic receptor (Homo sapiens, UniProt P08172); assay: Functional mobilization of intracellular calcium (FLIPR) in CHO cells expressing M2; details: for pEC50: CHO cells expressing M2, FLIPR calcium; for Emax: CHO, read-out: M2 Efficacy
T1 construct: expressed in transfected cells; host or cells: CHO (M2-CHO)
T1 sequence (P08172 1-466): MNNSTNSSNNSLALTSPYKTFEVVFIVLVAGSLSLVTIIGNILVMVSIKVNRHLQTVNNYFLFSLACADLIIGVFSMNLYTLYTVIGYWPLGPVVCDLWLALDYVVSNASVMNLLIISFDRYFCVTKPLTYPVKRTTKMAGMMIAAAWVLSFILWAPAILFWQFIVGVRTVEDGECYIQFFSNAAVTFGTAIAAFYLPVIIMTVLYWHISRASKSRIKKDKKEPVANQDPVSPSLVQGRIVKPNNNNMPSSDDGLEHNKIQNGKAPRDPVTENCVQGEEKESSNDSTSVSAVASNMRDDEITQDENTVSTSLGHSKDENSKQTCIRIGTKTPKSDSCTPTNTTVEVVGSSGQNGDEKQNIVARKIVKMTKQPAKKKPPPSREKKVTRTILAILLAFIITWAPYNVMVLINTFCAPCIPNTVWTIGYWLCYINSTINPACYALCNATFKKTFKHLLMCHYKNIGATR
Method: (§1) Functional Mobilization of Intracellular Calcium to Determine Muscarinic Receptor Activity:
(§2) CHO cells expressing muscarinic receptors (M1 to M5) are grown as monolayers in tissue culture flasks at 37° C. in a humidified atmosphere containing 5% CO2 and passaged every 3-5 days. The growth media is Dulbecco's modified eagles medium (DMEM, Gibco Cat# 12430-054), containing 25 mM Hepes and supplemented with Fetal Bovine Serum (Hyclone, cat# SH30071.03), 0.1 mM of MEM non-essential amino acids (GIBCO, Cat# 11140-050), 1 mM MEM Sodium Pyruvate (GIBCO Cat# 11360-070) and 100 units/ml of Penicillin G and 100 μg/ml of Streptomycin (GIBCO Cat# 15140-122). The recombinant muscarinic receptor cell lines are grown under antibiotic pressure with media containing 25 μg/ml zeocin and 500 μg/ml G418 (M1-CHO), 4 μg/ml puromycin, 50 μg/ml zeocin and 2.5 μg/ml blasticidin (M2 and M4-CHO) or 50 μg/ml zeocin and 4 μg/ml puromycin (M3 and M5-CHO).
(§3) Cells are harvested at 80-90% confluence using Versene (GIBCO Cat# 15040-066), collected by centrifugation and seeded 18-24 hrs prior to running the calcium assay at a density of 5,000-10,000 cells/well in […], clear-bottomed 384-well plates (BD Biocoat, poly-D-lysine, Cat#356663). The day of the experiment, the cells are washed with a plate washer (Bioteck Instruments, ELX 405) using bath 1 buffer (140 mM NaCl, 4,5 mM KCl, 2 mM CaCl2, 1 mM MgCl2, 10 mM Hepes-Na, 10 mM Glucose, pH 7.4, with NaOH) containing 1 mM Probenecid. Next, the calcium dye Fluo-3 (25 μl/well of Fluo-3 AM at 4 μM, Molecular Probes F-1241, in Bath 1 buffer containing 1 mM Probenecid) is added to the 25 μl of Bath 1 remaining in each well after the plate wash and the dye is loaded at 37° C. in the tissue culture incubator for 60-90 min. The fluorescent dye is removed using the plate washer with Bath 1 containing 1 mM Probenecid, leaving 25 μl/well of this solution after the wash. Alternatively, cells can be loaded with the calcium indicator from Molecular Devices (Calcium 3 Assay Reagents, Cat #R7181) adding 5 μl of a 5× solution dye in Bath 1 containing 1 mM Probenecid (10 ml per dye flask cat#R7182 to generate a solution […]) to 20 μl of the same buffer. After loading for 60 min, the experiment can be run without having to remove the dye.
(§4) Compounds are prepared at a 2× fold concentration in a 96-well plate (round bottom, Costar Corning cat#3656), by reconstituting the pre-spotted compounds in bath 1 containing 1 mM probenecid. The final concentration DMSO is 0.5%, and the amount of DMSO is normalized across the assay plate. To determine an agonist action of the compounds on muscarinic receptors, the reconstituted compounds are added (25 μl compound/well) to the cell assay plate (containing 25 μl/well) using the multi-channel robotic system of the FLIPR 3 Instrument (Molecular Devices, Sunnyvale, Calif.). To determine a functional inhibitory action of the compounds on muscarinic receptors, the reconstituted compounds are added (25 μl compound/well) to the assay plate and pre-incubated for 15 min prior to adding 25 μl of Carbachol at 3× the EC80 for each muscarinic subtype. Alternatively, the compounds can be co-applied simultaneously with the agonist. In both assay modes, the fluorescence is recorded for 60 sec (excitation wavelength is […] and emission wavelength 540 nm) using the FLIPR 3 instrument.
(§5) The potency, efficacy and selectivity of the muscarinic compounds were evaluated by screening the compound activity across the whole family (M1 to M5 cells). Compounds were also screened for activity on other proteins such as other GPCRs and ion channels to determine selectivity on M4 receptors.

[2] = target: T2, M4 muscarinic receptor (Homo sapiens, UniProt P08173); assay: Functional mobilization of intracellular calcium (FLIPR) in CHO cells expressing M4; details: for pEC50: CHO cells expressing M4, FLIPR calcium; for Emax: CHO, read-out: M4 Efficacy
T2 construct: expressed in transfected cells; host or cells: CHO (M4-CHO)
T2 sequence (P08173 1-479): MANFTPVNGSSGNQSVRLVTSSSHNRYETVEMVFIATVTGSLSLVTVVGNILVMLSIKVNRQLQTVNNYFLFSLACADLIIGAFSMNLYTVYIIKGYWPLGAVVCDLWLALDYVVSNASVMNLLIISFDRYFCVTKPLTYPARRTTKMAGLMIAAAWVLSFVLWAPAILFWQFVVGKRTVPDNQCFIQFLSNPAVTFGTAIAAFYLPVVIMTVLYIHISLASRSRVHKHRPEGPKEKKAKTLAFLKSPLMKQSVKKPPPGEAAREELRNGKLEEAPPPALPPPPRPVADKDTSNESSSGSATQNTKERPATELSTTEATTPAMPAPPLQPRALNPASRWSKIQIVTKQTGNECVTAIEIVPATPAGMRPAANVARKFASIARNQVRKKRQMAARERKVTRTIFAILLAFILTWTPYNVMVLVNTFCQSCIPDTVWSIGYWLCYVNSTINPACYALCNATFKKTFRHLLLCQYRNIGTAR
Method: as §1, §2, §3, §4, §5

[3] = target: T3, M3 muscarinic receptor (Homo sapiens, UniProt P20309); assay: Functional mobilization of intracellular calcium (FLIPR) in CHO cells expressing M3; details: for pEC50: CHO cells expressing M3, FLIPR calcium; for Emax: CHO, read-out: M3 Efficacy
T3 construct: expressed in transfected cells; host or cells: CHO (M3-CHO)
T3 sequence (P20309 whole entry): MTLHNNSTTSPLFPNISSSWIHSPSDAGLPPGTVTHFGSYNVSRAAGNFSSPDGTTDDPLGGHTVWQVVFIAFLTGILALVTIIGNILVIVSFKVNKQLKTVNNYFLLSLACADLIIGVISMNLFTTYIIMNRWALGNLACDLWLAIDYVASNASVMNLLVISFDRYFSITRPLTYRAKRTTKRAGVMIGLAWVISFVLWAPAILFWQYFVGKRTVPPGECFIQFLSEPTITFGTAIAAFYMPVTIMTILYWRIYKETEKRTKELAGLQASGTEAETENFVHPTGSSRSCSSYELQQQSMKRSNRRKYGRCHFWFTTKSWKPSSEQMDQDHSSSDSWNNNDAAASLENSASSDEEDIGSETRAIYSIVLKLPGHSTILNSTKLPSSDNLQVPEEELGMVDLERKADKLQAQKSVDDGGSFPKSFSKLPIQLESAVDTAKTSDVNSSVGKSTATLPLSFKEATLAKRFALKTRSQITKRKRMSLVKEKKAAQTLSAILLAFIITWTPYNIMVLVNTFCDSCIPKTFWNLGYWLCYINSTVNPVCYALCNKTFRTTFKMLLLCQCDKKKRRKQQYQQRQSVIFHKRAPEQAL
Method: as §1, §2, §3, §4, §5

[4] = target: T4, M1 muscarinic receptor (Homo sapiens, UniProt P11229); assay: Functional mobilization of intracellular calcium (FLIPR) in CHO cells expressing M1; details: for pEC50: CHO cells expressing M1, FLIPR calcium; for Emax: CHO, read-out: M1 Efficacy
T4 construct: expressed in transfected cells; host or cells: CHO (M1-CHO)
T4 sequence (P11229 1-460): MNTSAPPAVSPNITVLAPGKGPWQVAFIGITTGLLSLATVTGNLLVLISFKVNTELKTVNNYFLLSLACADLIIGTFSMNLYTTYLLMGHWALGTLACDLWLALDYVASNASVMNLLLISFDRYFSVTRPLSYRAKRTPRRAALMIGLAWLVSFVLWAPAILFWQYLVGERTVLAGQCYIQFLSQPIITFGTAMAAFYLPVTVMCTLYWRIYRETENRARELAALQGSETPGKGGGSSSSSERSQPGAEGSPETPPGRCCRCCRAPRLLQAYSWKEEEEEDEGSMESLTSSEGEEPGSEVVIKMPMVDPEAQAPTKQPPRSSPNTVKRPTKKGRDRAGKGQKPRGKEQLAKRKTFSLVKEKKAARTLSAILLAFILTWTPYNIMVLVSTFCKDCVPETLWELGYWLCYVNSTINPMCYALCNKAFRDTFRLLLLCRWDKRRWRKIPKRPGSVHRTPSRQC
Method: as §1, §2, §3, §4, §5

[5] = 100% = maximum response obtained with the Carbachol control

CC(C)(C)CCN1CCC2(CC[C@@H](N3CCCCC3=O)c3ccc(F)cc32)CC1 [compound 6]
pEC50 [1]: < 5.30 | Emax [1, 5]: < 25% | pEC50 [2]: > 5.70 | Emax [2, 5]: 25 to 100% | pEC50 [3]: < 5.30 | Emax [3, 5]: < 25% | pEC50 [4]: < 5.30 | Emax [4, 5]: < 25%

CCN(C(=O)CC1CCCC1=O)[C@H]1CCC2(CCN(CCC(C)(C)C)CC2)c2ccccc21 (stereo partly shown) [compound 7]
pEC50 [1]: < 5.30 | Emax [1, 5]: < 25% | pEC50 [2]: > 5.70 | Emax [2, 5]: 25 to 100% | pEC50 [3]: < 5.30 | Emax [3, 5]: < 25% | pEC50 [4]: 5.30 to 5.70 | Emax [4, 5]: 25 to 100%

CC(=O)NCCC(=O)N[C@@H]1CCC2(CCN(CCC(C)(C)C)CC2)c2ccccc21 [compound 8]
pEC50 [1]: 5.30 to 5.70 | Emax [1, 5]: < 25% | pEC50 [2]: > 5.70 | Emax [2, 5]: 25 to 100% | pEC50 [3]: < 5.30 | Emax [3, 5]: < 25% | pEC50 [4]: > 5.70 | Emax [4, 5]: 25 to 100%

CCN(C(=O)C1CCOC1)[C@H]1CCC2(CCN(CCC(C)(C)C)CC2)c2ccccc21 (stereo partly shown) [compound 9]
pEC50 [1]: < 5.30 | Emax [1, 5]: < 25% | pEC50 [2]: > 5.70 | Emax [2, 5]: 25 to 100% | pEC50 [3]: < 5.30 | Emax [3, 5]: < 25% | pEC50 [4]: < 5.30 | Emax [4, 5]: 25 to 100%

CCN(C(=O)c1cscn1)[C@H]1CCC2(CCN(CCC(C)(C)C)CC2)c2ccccc21 [compound 10]
pEC50 [1]: < 5.30 | Emax [1, 5]: < 25% | pEC50 [2]: > 5.70 | Emax [2, 5]: 25 to 100% | pEC50 [3]: < 5.30 | Emax [3, 5]: < 25% | pEC50 [4]: < 5.30 | Emax [4, 5]: < 25%

CCC(=O)N[C@@H]1CCC2(CCN(CCC(C)(C)C)CC2)c2cc(F)ccc21 [compound 11]
pEC50 [1]: < 5.30 | Emax [1, 5]: < 25% | pEC50 [2]: > 5.70 | Emax [2, 5]: 25 to 100% | pEC50 [3]: < 5.30 | Emax [3, 5]: < 25% | pEC50 [4]: > 5.70 | Emax [4, 5]: 25 to 100%

CCOC(=O)N[C@H]1CCC2(CCN(CCC(C)(C)C)CC2)c2ccccc21 [compound 12]
pEC50 [1]: > 5.70 | Emax [1, 5]: 25 to 100% | pEC50 [2]: > 5.70 | Emax [2, 5]: 25 to 100% | pEC50 [3]: < 5.30 | Emax [3, 5]: < 25% | pEC50 [4]: > 5.70 | Emax [4, 5]: 25 to 100%

CCC(=O)N1CCCC(C(=O)N[C@@H]2CCC3(CCN(CCC(C)(C)C)CC3)c3ccccc32)C1 (stereo partly shown) [compound 13]
pEC50 [1]: < 5.30 | Emax [1, 5]: < 25% | pEC50 [2]: > 5.70 | Emax [2, 5]: 25 to 100% | pEC50 [3]: < 5.30 | Emax [3, 5]: < 25% | pEC50 [4]: < 5.30 | Emax [4, 5]: < 25%

CC(=O)N[C@H](C)C(=O)N[C@@H]1CCC2(CCN(CCC(C)(C)C)CC2)c2ccccc21 [compound 14]
M2 Efficacy [1, 5]: + (efficacy was calculated to be less than 25%) | pEC50 [1]: 5.30 to 5.70 | M4 Efficacy [2, 5]: ++ (efficacy was calculated to be from 100% to 25%) | pEC50 [2]: > 5.70 | M3 Efficacy [3, 5]: + (efficacy was calculated to be less than 25%) | pEC50 [3]: < 5.30 | M1 Efficacy [4, 5]: ++ (efficacy was calculated to be from 100% to 25%) | pEC50 [4]: < 5.30

CCN(C(=O)C1CCCN1C(C)=O)[C@H]1CCC2(CCN(CCC(C)(C)C)CC2)c2ccccc21 (stereo partly shown) [compound 15]
pEC50 [1]: < 5.30 | Emax [1, 5]: < 25% | pEC50 [2]: > 5.70 | Emax [2, 5]: 25 to 100% | pEC50 [3]: < 5.30 | Emax [3, 5]: < 25% | pEC50 [4]: > 5.70 | Emax [4, 5]: 25 to 100%

COC(=O)CCCN1CCC2(CC[C@H](NC(C)=O)c3ccccc32)CC1 [compound 16]
pEC50 [1]: < 5.30 | Emax [1, 5]: < 25% | pEC50 [2]: < 5.30 | Emax [2, 5]: 25 to 100% | pEC50 [3]: < 5.30 | Emax [3, 5]: < 25% | pEC50 [4]: 5.30 to 5.70 | Emax [4, 5]: 25 to 100%
